This note sets out measurements from article PMC9319510, “The Multistage Antimalarial Compound Calxinin Perturbates P. falciparum Ca^2+ Homeostasis by Targeting a Unique Ion Channel” (Pharmaceutics, 2022).

Structures are written as SMILES.

For this experiment, the system named is T1, voltage T-type Ca2+ channel (α1H; Cav3.1).
T1 construct: gene CACNA1H; α1H cDNA in pcDNA3, expressed in HEK 293 cells; Cav3.1 would be α1G (CACNA1G)
Put plainly: whole-cell patch clamp. The format is cell-based, Homo sapiens. The following applies: HEK-293 cells stably expressing α1H; 5 mM CaCl2 external, pH 7.4; Vh -90 mV; positive control, data not shown.

Regarding `CN1CCN(c2ncc(-c3cc(Cl)cc(Cl)c3Cl)c(N)n2)CC1` [Sipatrigine], the IC50 is about 30 µM.
